Assay results reported in article PMC4941420, “A Rational Approach for the Identification of Non-Hydroxamate HDAC6-Selective Inhibitors” (Scientific Reports, 2016).

system: class I HDACs (HeLa nuclear extracts); assay: HDAC activity of HeLa nuclear extracts (Fluor de Lys); assay type: biochemical, human; details: 100 μM, average of at least 3 independent experiments in duplicates (Table 1)

SMILES | HeLa % of inhibition at 100 μM [%]
NNC(=O)c1ccc(Cn2cc(Cl)cn2)cc1 [AK-24] | 33.3 ± 5.4
NNC(=O)c1ccc(COc2ccccc2Br)cc1 [AK-18] | 0.4 ± 3.9
O=C(CSc1nc2cc(Cl)c3cccnc3c2o1)c1ccc(O)c(O)c1 [AO-1] | 20.7 ± 4.0
NNC(=O)c1ccc(Cn2cc(Br)cn2)cc1 [AK-21] | 14.7 ± 11.6
COc1ccccc1OCc1ccc(C(=O)NN)cc1 [AK-5] | 5.8 ± 1.3
CC1(C)Cc2ccccc2C2=C/C(=N/O)C(=O)N21 [AG-1] | 38.2 ± 1.1
Cc1nn(Cc2ccc(C(=O)NN)cc2)c(C)c1Cl [AK-2] | 10.0 ± 2.0

same assay, conditions: 100 µM, mean ± SD (n=3) (Table S6)

SMILES | HeLa % of inhibition at 100 μM [%]
COc1ccccc1OCc1ccc(C(=O)NN)o1 [AK-15] | -2.6 ± 3.0

target: T1, HDAC6 (Homo sapiens, UniProt Q9UBN7); assay: In vitro enzymatic assay HDAC6 (Fluor de Lys); assay type: biochemical; details: 100 µM; mean ± SD (n=3)
T1 construct: purchased Sigma Aldrich or Reaction Biology Corporation
T1 sequence (Q9UBN7 1-1215): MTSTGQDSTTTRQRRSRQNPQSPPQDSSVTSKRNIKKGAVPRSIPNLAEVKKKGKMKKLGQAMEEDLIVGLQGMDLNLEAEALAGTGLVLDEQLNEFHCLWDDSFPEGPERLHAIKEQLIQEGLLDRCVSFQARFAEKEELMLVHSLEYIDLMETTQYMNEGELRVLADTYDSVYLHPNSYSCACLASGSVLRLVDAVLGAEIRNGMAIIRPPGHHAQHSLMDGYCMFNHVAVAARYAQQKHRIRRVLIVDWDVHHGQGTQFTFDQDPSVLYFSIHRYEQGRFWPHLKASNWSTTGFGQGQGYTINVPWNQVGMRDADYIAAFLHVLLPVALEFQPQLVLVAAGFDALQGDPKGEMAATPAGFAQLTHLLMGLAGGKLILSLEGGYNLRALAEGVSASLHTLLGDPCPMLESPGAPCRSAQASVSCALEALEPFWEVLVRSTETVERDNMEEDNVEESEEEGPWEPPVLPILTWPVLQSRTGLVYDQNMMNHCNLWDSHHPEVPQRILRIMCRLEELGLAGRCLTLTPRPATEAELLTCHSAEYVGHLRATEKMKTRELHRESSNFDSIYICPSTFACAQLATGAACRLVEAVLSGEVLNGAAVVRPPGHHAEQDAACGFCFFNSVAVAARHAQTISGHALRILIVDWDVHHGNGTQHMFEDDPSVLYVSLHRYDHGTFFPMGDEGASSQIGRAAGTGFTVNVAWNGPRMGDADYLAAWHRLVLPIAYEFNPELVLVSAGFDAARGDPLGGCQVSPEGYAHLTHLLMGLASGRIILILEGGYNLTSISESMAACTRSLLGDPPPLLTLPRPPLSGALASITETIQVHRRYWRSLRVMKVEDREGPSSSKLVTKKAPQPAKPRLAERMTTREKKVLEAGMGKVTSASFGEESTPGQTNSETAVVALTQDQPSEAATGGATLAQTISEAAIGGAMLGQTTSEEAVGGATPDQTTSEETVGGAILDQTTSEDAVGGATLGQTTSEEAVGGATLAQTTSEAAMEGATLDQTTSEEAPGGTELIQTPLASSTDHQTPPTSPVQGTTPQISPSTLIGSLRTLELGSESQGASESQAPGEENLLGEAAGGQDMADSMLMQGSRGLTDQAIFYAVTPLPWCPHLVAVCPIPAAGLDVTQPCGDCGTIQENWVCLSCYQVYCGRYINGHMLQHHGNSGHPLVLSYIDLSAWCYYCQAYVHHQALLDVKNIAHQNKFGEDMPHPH

HDAC6 % of inhibition at 100 µM | SMILES
-1.8 ± 11.1% | C=CCn1c(SCC(=O)Nc2ccc(S(N)(=O)=O)cc2)nnc1-c1sc(N)nc1C [AS-1]
-4.0 ± 3.9% Self-fluorescence | COc1cc(/C=N/NC(N)=S)ccc1OCC(=O)Nc1ccc(C)c(C)c1 [AN-3]
5.3 ± 19.9% | Cc1nn(Cc2ccc(C(=O)NN)o2)c(C)c1Cl [AK-11]
23.7 ± 9.3% | NNC(=O)CC12CC3CC(C1)CC(n1ncnn1)(C3)C2 [AK-13]
8.0 ± 4.6% | CCOc1cc(/C=N/O)cc(Cl)c1OC [AK-9]
32.5 ± 8.8% | CC1(C)Cc2c(c(N3CCOCC3)nc3sc(C(=O)NN)cc23)CO1 [AK-8]
-2.8 ± 9.7% Self-fluorescence | COc1cc(/C=C2/SC(N)=NC2=O)ccc1OCc1ccc(Cl)cc1Cl [AG-2]
16.3 ± 0. % | C=CCn1c2ccccc2c2nnc(SC(CC)C(=O)Nc3ccc(S(N)(=O)=O)cc3)nc21 (centres unmarked) [AG-3]
36.9 ± 11.3% | CCOc1ccc(OCc2ccc(C(=O)NN)o2)cc1 [AK-16]
4.9 ± 8.2% Self-fluorescence | COc1cc(/C=N/NC(N)=S)ccc1OCC(=O)Nc1ccc(Br)c(Cl)c1 [AN-2]
18.1 ± 4.0% | Cc1nnn(C23CC4CC(CC(C(=O)NN)(C4)C2)C3)n1 [AK-19]
0.1 ± 2.3% | Cn1cc(Br)c(C(=O)NN)n1 [AK-3]
3.0 ± 0.3% | NNC(=O)C12CC3CC(C1)CC(n1cnc(Cl)n1)(C3)C2 [AK-4]
22.3 ± 8.7% | NNC(=O)c1cc(Br)cs1 [AK-20]
12.1 ± 1.6% | Cc1ccccc1COc1ccc(/C=N/NC(N)=S)cc1 [AH-2]
13.9 ± 17.9% | CC(C)Oc1cccc(C(=O)NN)c1 [AK-10]

HDAC6 % of inhibition at 100 µM | SMILES
31.1 ± 0.5% Self-fluorescence | NNC(=O)c1cc2nc(-c3cccs3)cc(C(F)(F)F)n2n1 [AK-7]
-3.3 ± 5.4% | Cc1cccc(Cn2nnc3c(=O)n(CC(=O)Nc4ccc(S(N)(=O)=O)cc4)cnc32)c1 [AO-2]
28.2 ± 16.7% | Cc1c(C)n(Cc2ccccc2)c2ccc(C(=O)NN)cc12 [AK-12]
15.3 ± 0.5% | NNC(=O)c1cccc(COc2cc(Cl)ccc2Cl)c1 [AK-6]
25.4 ± 9.7% | NNC(=O)c1cccc(COc2ccccc2Br)c1 [AK-22]
35.5 ± 10.5% | CCOc1ccc(OCc2cccc(C(=O)NN)c2)cc1 [AK-17]
29.1 ± 10.3% | NNC(=O)c1ccc(COc2ccc(Cl)cc2Cl)o1 [AK-25]
42.1 ± 23.0% | COc1ccccc1OCc1ccc(C(=O)NN)o1 [AK-15]
26.9 ± 6.1% | N/N=C1\CCCc2c1[nH]c1ccc(C(=O)NN)cc21 [AH-1]
5.5 ± 2.9% | CC(C)(C)CC(C)(C)c1ccc(OCC(=O)NN)c([N+](=O)[O-])c1 [AG-4]
-16.4 ± 9.3% | Cc1cc2ccccc2n2c(SCC(=O)Nc3ccc(S(N)(=O)=O)cc3)nnc12 [AQ-1]
5.2 ± 1.5% | CC(C)C12CC3CC(CC(C(=O)NN)(C3)C1)C2 [AF-1]
18.3 ± 0.1% | CC(C)c1ccc(OCc2cccc(C(=O)NN)c2)cc1 [AK-1]
-43.0 ± 11.8% | NS(=O)(=O)c1ccc(N2N=C(C(F)(F)F)/C(=C/c3ccc(-c4ccc(Cl)c(Cl)c4)o3)C2=O)cc1 [AN-1]
20.2 ± 10.9% | CC(C)(C)C1CCC(C(=O)NN)CC1 (centres unmarked) [AK-23]

same assay, conditions: 100 µM; mean ± SD (n=3); read-out: HDAC6 % of inhibition at 100 µM

inhibition at 100 µM [%] | SMILES
63.1 ± 12.2 | NNC(=O)c1ccc(Cn2cc(Cl)cn2)cc1 [AK-24]
69 ± 2.4 | NNC(=O)c1ccc(COc2ccccc2Br)cc1 [AK-18]
66.1 ± 6.9 | O=C(CSc1nc2cc(Cl)c3cccnc3c2o1)c1ccc(O)c(O)c1 [AO-1]
67.9 ± 7.8 | NNC(=O)c1ccc(Cn2cc(Br)cn2)cc1 [AK-21]
64.4 ± 1.3 | COc1ccccc1OCc1ccc(C(=O)NN)cc1 [AK-5]
83.8 ± 2.3 | CC1(C)Cc2ccccc2C2=C/C(=N/O)C(=O)N21 [AG-1]
58 ± 1.5 | Cc1nn(Cc2ccc(C(=O)NN)cc2)c(C)c1Cl [AK-2]

same assay, conditions: HDAC6 versus HDAC2

selectivity index (SI) with respect to HDAC2 | SMILES
> 50 | O=C(CSc1nc2cc(Cl)c3cccnc3c2o1)c1ccc(O)c(O)c1 [AO-1]
> 50 | CC1(C)Cc2ccccc2C2=C/C(=N/O)C(=O)N21 [AG-1]

same assay, conditions: average of at least 2 independent experiments in duplicates ± SEM

IC50 [µM] | SMILES
74.9 ± 5.2 | NNC(=O)c1ccc(Cn2cc(Cl)cn2)cc1 [AK-24]
16.4 ± 1.1 | NNC(=O)c1ccc(COc2ccccc2Br)cc1 [AK-18]
16.9 ± 4.9 | O=C(CSc1nc2cc(Cl)c3cccnc3c2o1)c1ccc(O)c(O)c1 [AO-1]
30.9 ± 2.1 | NNC(=O)c1ccc(Cn2cc(Br)cn2)cc1 [AK-21]
45.6 ± 1.5 | COc1ccccc1OCc1ccc(C(=O)NN)cc1 [AK-5]
21.7 ± 1.2 | CC1(C)Cc2ccccc2C2=C/C(=N/O)C(=O)N21 [AG-1]
47.9 ± 4.7 | Cc1nn(Cc2ccc(C(=O)NN)cc2)c(C)c1Cl [AK-2]

target: T2, HDAC2 (Homo sapiens, UniProt Q92769); assay: In vitro enzymatic assay HDAC2 (Fluor de Lys); assay type: biochemical; details: average of at least 2 independent experiments in duplicates ± SEM
T2 construct: purchased Sigma Aldrich or Reaction Biology Corporation
T2 sequence (Q92769 whole entry): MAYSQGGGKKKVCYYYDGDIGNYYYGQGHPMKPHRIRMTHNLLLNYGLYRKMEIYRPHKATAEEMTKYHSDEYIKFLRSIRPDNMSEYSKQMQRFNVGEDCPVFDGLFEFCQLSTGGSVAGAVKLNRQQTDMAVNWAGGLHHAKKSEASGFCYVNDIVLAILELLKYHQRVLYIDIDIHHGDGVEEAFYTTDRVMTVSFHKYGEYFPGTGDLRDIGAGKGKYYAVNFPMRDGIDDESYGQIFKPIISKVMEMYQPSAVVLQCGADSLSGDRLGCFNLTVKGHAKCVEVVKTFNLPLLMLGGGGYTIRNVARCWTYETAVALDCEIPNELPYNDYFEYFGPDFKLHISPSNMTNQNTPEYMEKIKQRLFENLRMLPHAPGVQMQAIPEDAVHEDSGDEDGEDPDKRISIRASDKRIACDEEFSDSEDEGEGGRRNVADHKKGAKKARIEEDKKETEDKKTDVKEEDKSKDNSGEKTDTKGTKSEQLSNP

IC50 [µM] | SMILES
> 200 | NNC(=O)c1ccc(Cn2cc(Cl)cn2)cc1 [AK-24]
> 1000 | NNC(=O)c1ccc(COc2ccccc2Br)cc1 [AK-18]
> 1000 | O=C(CSc1nc2cc(Cl)c3cccnc3c2o1)c1ccc(O)c(O)c1 [AO-1]
201.7 ± 1.9 | NNC(=O)c1ccc(Cn2cc(Br)cn2)cc1 [AK-21]
> 200 | COc1ccccc1OCc1ccc(C(=O)NN)cc1 [AK-5]
> 1000 | CC1(C)Cc2ccccc2C2=C/C(=N/O)C(=O)N21 [AG-1]
> 200 | Cc1nn(Cc2ccc(C(=O)NN)cc2)c(C)c1Cl [AK-2]

target: T3, HDAC8 (Homo sapiens, UniProt Q9BY41); assay: In vitro enzymatic assay HDAC8 (Fluor de Lys); assay type: biochemical; details: average of at least 2 independent experiments in duplicates ± SEM
T3 construct: purchased Sigma Aldrich or Reaction Biology Corporation
T3 sequence (Q9BY41 1-377): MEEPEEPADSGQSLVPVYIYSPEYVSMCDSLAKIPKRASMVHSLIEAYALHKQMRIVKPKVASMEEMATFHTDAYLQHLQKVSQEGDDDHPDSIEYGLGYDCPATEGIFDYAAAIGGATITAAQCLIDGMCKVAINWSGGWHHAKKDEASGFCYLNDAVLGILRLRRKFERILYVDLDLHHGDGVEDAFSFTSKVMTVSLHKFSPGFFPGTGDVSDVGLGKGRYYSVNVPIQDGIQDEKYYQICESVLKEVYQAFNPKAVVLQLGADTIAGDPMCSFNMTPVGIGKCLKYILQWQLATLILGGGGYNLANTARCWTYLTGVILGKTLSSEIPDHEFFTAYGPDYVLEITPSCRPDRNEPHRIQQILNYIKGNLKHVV

IC50 [µM] | SMILES
86.9 ± 0.7 | NNC(=O)c1ccc(Cn2cc(Cl)cn2)cc1 [AK-24]
> 300 | NNC(=O)c1ccc(COc2ccccc2Br)cc1 [AK-18]
35.1 ± 1.1 | O=C(CSc1nc2cc(Cl)c3cccnc3c2o1)c1ccc(O)c(O)c1 [AO-1]
74.9 ± 0.8 | NNC(=O)c1ccc(Cn2cc(Br)cn2)cc1 [AK-21]
130 ± 9 | COc1ccccc1OCc1ccc(C(=O)NN)cc1 [AK-5]
0.3 ± 0.005 | CC1(C)Cc2ccccc2C2=C/C(=N/O)C(=O)N21 [AG-1]
140 ± 11.5 | Cc1nn(Cc2ccc(C(=O)NN)cc2)c(C)c1Cl [AK-2]

target: T4, HDAC4 (Homo sapiens, UniProt P56524); assay: In vitro enzymatic assay HDAC4 (Fluor de Lys); assay type: biochemical; details: average of at least 2 independent experiments in duplicates ± SEM
T4 construct: purchased Sigma Aldrich or Reaction Biology Corporation
T4 sequence (P56524 whole entry): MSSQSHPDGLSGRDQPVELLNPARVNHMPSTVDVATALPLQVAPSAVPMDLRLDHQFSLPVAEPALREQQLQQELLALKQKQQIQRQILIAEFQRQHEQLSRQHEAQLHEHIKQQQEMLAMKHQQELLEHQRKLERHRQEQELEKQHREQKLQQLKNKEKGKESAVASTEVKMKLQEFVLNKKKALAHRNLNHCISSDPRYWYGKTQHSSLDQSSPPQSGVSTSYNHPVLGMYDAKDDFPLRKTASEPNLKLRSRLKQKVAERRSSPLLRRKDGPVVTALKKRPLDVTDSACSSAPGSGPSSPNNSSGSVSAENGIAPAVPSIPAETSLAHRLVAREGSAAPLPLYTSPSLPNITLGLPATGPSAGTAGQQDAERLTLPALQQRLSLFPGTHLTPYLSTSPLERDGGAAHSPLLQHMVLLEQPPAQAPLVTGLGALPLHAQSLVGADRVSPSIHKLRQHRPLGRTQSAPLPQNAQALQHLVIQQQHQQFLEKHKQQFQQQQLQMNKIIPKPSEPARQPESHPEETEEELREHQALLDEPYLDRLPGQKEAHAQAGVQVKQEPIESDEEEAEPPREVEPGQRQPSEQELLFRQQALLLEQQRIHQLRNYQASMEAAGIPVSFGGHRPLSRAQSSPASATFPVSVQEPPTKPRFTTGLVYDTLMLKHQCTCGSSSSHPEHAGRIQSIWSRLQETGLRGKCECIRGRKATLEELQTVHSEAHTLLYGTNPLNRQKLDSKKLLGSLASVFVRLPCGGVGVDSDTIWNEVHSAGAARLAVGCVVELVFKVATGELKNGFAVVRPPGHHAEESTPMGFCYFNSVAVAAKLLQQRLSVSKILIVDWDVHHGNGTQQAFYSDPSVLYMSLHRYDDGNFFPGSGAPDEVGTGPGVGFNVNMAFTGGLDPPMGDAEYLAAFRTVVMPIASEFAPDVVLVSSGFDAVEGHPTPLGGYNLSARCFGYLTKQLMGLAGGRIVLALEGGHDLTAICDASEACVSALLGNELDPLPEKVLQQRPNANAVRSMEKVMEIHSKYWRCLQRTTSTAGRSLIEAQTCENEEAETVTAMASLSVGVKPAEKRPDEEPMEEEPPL

IC50 [µM] | SMILES
> 300 | NNC(=O)c1ccc(Cn2cc(Cl)cn2)cc1 [AK-24]
> 300 | NNC(=O)c1ccc(COc2ccccc2Br)cc1 [AK-18]
73.5 ± 6 | O=C(CSc1nc2cc(Cl)c3cccnc3c2o1)c1ccc(O)c(O)c1 [AO-1]
> 300 | NNC(=O)c1ccc(Cn2cc(Br)cn2)cc1 [AK-21]
> 300 | COc1ccccc1OCc1ccc(C(=O)NN)cc1 [AK-5]
111 ± 3.5 | CC1(C)Cc2ccccc2C2=C/C(=N/O)C(=O)N21 [AG-1]
> 300 | Cc1nn(Cc2ccc(C(=O)NN)cc2)c(C)c1Cl [AK-2]

system: HDAC6; assay: HDAC ChEMBL dataset / literature, enzymatic IC50 HDAC6; assay type: biochemical; details: ratio of ChEMBL IC50 values

SMILES | Isoform selectivity (ratio) HDAC2/HDAC6 | Isoform selectivity (ratio) HDAC4/HDAC6 | Isoform selectivity (ratio) HDAC8/HDAC6
O=C(NO)c1ccc(C(=O)NCCc2ccccc2)cc1 [CHEMBL2333340] | 151.75 | 8332.5 | 287.5
Cn1cccc1C(=O)N1CCc2cc(C(=O)NO)ccc2C1 [CHEMBL2431901] | 1388.9 | 1388.9 | 58.33
Cn1cccc1C(=O)N1Cc2ccc(C(=O)NO)cc2C1 [CHEMBL2431906] | 169.2 | 84.6 | 

system: not listed separately; assay: Solubility remarks during testing; assay type: physicochemical; details: tested at 100 µM in HDAC assay buffer

solubility remark in HDAC6 screening | SMILES
Solubility issues | CC1(C)Cc2c(c(N3CCOCC3)nc3sc(C(=O)NN)cc23)CO1 [AK-8]
Solubility issues | Cc1cc2ccccc2n2c(SCC(=O)Nc3ccc(S(N)(=O)=O)cc3)nnc12 [AQ-1]
